{"source": "patent US20230310643A1", "about": "“EXTRACORPOREAL CLEARING TRAPS BASED ON INVERSE ELECTRON DEMAND DIELS-ALDER CYCLOADDITION FOR (PRE)-TARGETED THERAPY AND DIAGNOSTICS” (RIGSHOSPITALET, priority 2020, published 2023)", "key": {"[1]": {"test_system": "TCO-CC49", "experiment": "Trapping of TCO-CC49 from PBS solution by tetrazine-agarose columns, eluate titrated with [111In]8", "details": "n = 2; for % TE mean ± SD, 2nd evaluation, TCO-CC49: repeated 9 days after first evaluation, columns stored at 4° C.; for % TE mean ± SD, 1st evaluation, TCO-CC49: trapping efficiency, single pass, 100 μg/mL in PBS, 0.5 mL/min", "protocol": "(§1) Tetrazine-agarose columns, two for each tetrazine, each prepared from 33 mg of dry NHS-agarose as described above (bed volume approx. 0.25 mL), and a control column prepared from tetrazine-free agarose, were equilibrated with 2-3 bed volumes of PBS. Antibody TCO-CC49 (approx. 1 TCO groups per 20 kDa molecular weight) or polymer TCO-KS254 (approx. 1 TCO group per 5 kDa molecular weight) were dissolved in PBS with to a mass concentration of 100 μg/mL. Aliquots of these solutions (0.4 mL) were pumped through the tetrazine-agarose columns at 0.5 mL/min pumping speed using an infusion pump (AL-1000, World Precision Instruments). When all solution had entered the resin bed, an aliquot of PBS (0.4 mL) was immediately added on top of it and pumped through the column at 0.5 mL/min. Total eluate (total volume approx. 0.8 mL) was collected and the amount of TCO-CC49 or TCO-KS254 was determined by ^111In-tetrazine ([^111In]8) titration.\n(§2) For each column, trapping of both TCO-CC49 and TCO-KS254 was tested, and the column was rinsed with 2-3 volumes of PBS between tests. For pairs of columns with the same tetrazine, the order of testing (TCO-CC49 first or TCO-KS254 first) for one column was opposite to the order of testing for another column.\n(§3) An aliquot of each trapping column eluate (6 μL) was mixed with an equal volume of 10 μM [111In]8 solution. Resulting mixtures were shaken at 37° C. for at least 1 hour to ensure full consumption of reactive TCO moieties. Then NuPage LDS Sample buffer was added to all mixtures according to the supplier's instructions, samples were heated for 10 min at 70° C. and applied on the NuPAGE 4-12% Bis-Tris SDS-PAGE gels. SDS-PAGE was run in MES-SDS buffer at 150V for 40-45 min. Separation was monitored by running SeeBlue® Plus2 Pre-Stained Protein Standard along with radiolabeled polymer samples. Control mixtures of 6 μL of [^111In]8 solution with 6 μL of PBS and reference mixtures of 6 μL of [^111In]8 solution and 6 μL of 50 μg/mL solutions of TCO-CC49 or TCO-KS254 were prepared and processed in the same manner. Developed gels were exposed against phosphor storage screens (PerkinElmer Multisensitive), which were then read in the Cyclone Plus phosphorimager (Packard Instruments, USA). Autoradiograms were quantified using Optiquant 3.0 software (Packard Instruments). Molecular weight reference ladder from the photo of the same gel aligned and merged to the autoradiogram is shown to the left in FIG. 8. Radioactivity found in the section of the gel corresponding to molecular weights of 60 kDa and above (using SeeBlue standards as reference) was considered polymer-bound or antibody-bound.\n(§4) Trapping efficiency (TE) was calculated according to the formula:\n(§5) % TE=100%×(1−% BTz/% BnoTz),\n(§6) where % BTz is the percentage of polymer/antibody bound ^111In activity in the eluate collected from a column with tetrazine-conjugated agarose, while % BnoTz is the percentage of polymer/antibody bound ^111In activity in the eluate collected from a control column with tetrazine-free agarose.\n(§7) For each column, evaluation of trapping efficiency for TCO-CC49 and TCO-KS254 was repeated 9 days after the first evaluation. In between evaluations, the columns were stored at 4° C. in phosphate-buffered saline with 0.1% vol/vol of ProClin™ 150 (Sigma-Aldrich)."}, "[2]": {"experiment": "Trapping of TCO-KS254 from PBS solution by tetrazine-agarose columns, eluate titrated with [111In]8", "details": "for Trapping efficiencies of TCO-KS254 polymer compared with resins with shorter or no linker (tetrazines 1, 3 and 5): comparison in words, longer linkers; for % TE mean ± SD, 2nd evaluation, TCO-KS254: repeated 9 days after first evaluation, columns stored at 4° C.; for % TE mean ± SD, 2nd evaluation, TCO-KS254 / % TE mean ± SD, 1st evaluation, TCO-KS254: n = 2; for % TE mean ± SD, 1st evaluation, TCO-KS254: trapping efficiency, single pass, 100 μg/mL in PBS, 0.5 mL/min", "protocol": "as §1, §2, §3, §4, §5, §6, §7"}, "[3]": {"experiment": "Dissolution of amino-tetrazine in phosphate-buffered saline", "assay_type": "physicochemical", "details": "PBS, 120 mM NaCl, 10 mM phosphate buffer pH 7.4", "protocol": "Amino-tetrazine (1-6) was dissolved in phosphate-buffered saline (PBS, 120 mM NaCl, 10 mM phosphate buffer pH 7.4) to a concentration of 4 mM (tetrazine 5 could only be dissolved to a concentration of 2.7 mM). This solution was added to dry NHS-activated agarose resin (Pierce/Thermo Fisher Scientific) at the ratio of 1 mL solution per 60 mg resin. The resin was shaken in a plastic tube with a filter frit for 2-3 h at room temperature, then tetrazine solution was removed by vacuum filtration, and the resin was washed 3 times with PBS at the same mL-per-mg resin ratio. After that, Tris-HCl buffer (0.5M, pH 7.4) was added to the resin, the resin was shaken for 2-3 h at room temperature or overnight at 4° C. and washed 3 times with PBS. Control resin (tetrazine-free quenched agarose) was prepared in the same way, but pure PBS without amino-tetrazines was used for the initial incubation."}}, "note": "Where a name gives a salt, the structure may show the parent alone."}
{"smiles": "NCCOCCOCCOCCOCCOCCOCCOCCOCCOCCOCCOCCNC(=O)CCCC(=O)Nc1ccc(-c2nnc(-c3ccccn3)nn2)nc1.O=C(O)C(F)(F)F", "note": "[Tetrazine 6, 37,41-dioxo-41-((6-(6-(pyridin-2-yl)-1,2,4,5-tetrazin-3-yl)pyridin-3-yl)amino)-3,6,9,12,15,18,21,24,27,30,33-undecaoxa-36-azahentetracontan-1-aminium trifluoroacetate]", "values": [{"measurement": "% TE mean ± SD, 2nd evaluation, TCO-CC49", "setting": "[1]", "result": "72 ± 1^ %"}, {"measurement": "% TE mean ± SD, 1st evaluation, TCO-CC49", "setting": "[1]", "result": "93 ± 7^ %"}, {"measurement": "Trapping efficiencies of TCO-KS254 polymer compared with resins with shorter or no linker (tetrazines 1, 3 and 5)", "setting": "[2]", "result": "lower trapping efficiencies"}, {"measurement": "% TE mean ± SD, 2nd evaluation, TCO-KS254", "setting": "[2]", "result": "50 ± 6", "unit": "%"}, {"measurement": "% TE mean ± SD, 1st evaluation, TCO-KS254", "setting": "[2]", "result": "64 ± 0", "unit": "%"}]}
{"smiles": "NCCCCCCCC(=O)Nc1ccc(-c2nnc(-c3ccccn3)nn2)nc1.O=C(O)C(F)(F)F", "note": "[Tetrazine 5, 8-amino—N-(6-(6-(pyridin-2-yl)-1,2,4,5-tetrazin-3-yl)pyridin-3-yl)octanamide 2,2,2-trifluoroacetate]", "values": [{"measurement": "% TE mean ± SD, 2nd evaluation, TCO-CC49", "setting": "[1]", "result": "89 ± 3^ %"}, {"measurement": "% TE mean ± SD, 1st evaluation, TCO-CC49", "setting": "[1]", "result": "98 ± 0.4", "unit": "%"}, {"measurement": "% TE mean ± SD, 2nd evaluation, TCO-KS254", "setting": "[2]", "result": "67 ± 0.3", "unit": "%"}, {"measurement": "% TE mean ± SD, 1st evaluation, TCO-KS254", "setting": "[2]", "result": "85 ± 5", "unit": "%"}, {"measurement": "Concentration to which the tetrazine could be dissolved", "setting": "[3]", "result": 2700, "unit": "µM"}]}
{"smiles": "NCc1ccc(-c2nncnn2)cc1.O=C(O)C(F)(F)F", "note": "[Tetrazine 3, (4-(1,2,4,5-Tetrazin-3-yl)phenyl)methanaminium trifluoroacetate]", "values": [{"measurement": "% TE mean ± SD, 2nd evaluation, TCO-CC49", "setting": "[1]", "result": "96 ± 0.4", "unit": "%"}, {"measurement": "% TE mean ± SD, 1st evaluation, TCO-CC49", "setting": "[1]", "result": "99 ± 1^ %"}, {"measurement": "% TE mean ± SD, 2nd evaluation, TCO-KS254", "setting": "[2]", "result": "78 ± 1", "unit": "%"}, {"measurement": "% TE mean ± SD, 1st evaluation, TCO-KS254", "setting": "[2]", "result": "93 ± 10", "unit": "%"}]}
{"smiles": "NCCOCCOCCOCCOCCOCCOCCOCCOCCOCCOCCOCCNC(=O)CCCC(=O)NCc1ccc(-c2nncnn2)cc1", "note": "[Tetrazine 4, 37,41-dioxo-41-((4-(1,2,4,5-Tetrazin-3-l)benzyl)amino)-3,6,9,12,15,18,21,24,27,30,33-undecaoxa-36-azahentetracontan-1-aminium trifluoroacetate]", "values": [{"measurement": "% TE mean ± SD, 2nd evaluation, TCO-CC49", "setting": "[1]", "result": "92 ± 0.4", "unit": "%"}, {"measurement": "% TE mean ± SD, 1st evaluation, TCO-CC49", "setting": "[1]", "result": "96 ± 6^ %"}, {"measurement": "Trapping efficiencies of TCO-KS254 polymer compared with resins with shorter or no linker (tetrazines 1, 3 and 5)", "setting": "[2]", "result": "lower trapping efficiencies"}, {"measurement": "% TE mean ± SD, 2nd evaluation, TCO-KS254", "setting": "[2]", "result": "56 ± 2", "unit": "%"}, {"measurement": "% TE mean ± SD, 1st evaluation, TCO-KS254", "setting": "[2]", "result": "75 ± 0.2", "unit": "%"}]}
